In US6395684B1, “Selective herbicides based on a substituted phenyl sulfonyl amino carbonyl triazolinone” (Bayer Aktiengesellschaft, priority 1998, dated 2002):
Where a name gives a salt, the structure may show the parent alone.

Columns and labels:
Assay type in all cases: in vivo
[1] = test system: weeds, such as, for example, Agropyron, Alopecurus, Avena, Bromus, Lolium, Poa, Setaria and Sinapis; experiment: Pre-emergence test/greenhouse, summary for weeds; conditions: greenhouse
Procedure: (§1) Pre-emergence Test/greenhouse Solvent: 5 parts by weight of acetone Emulsifier: 1 part by weight of alkylaryl polyglycol ether To produce a suitable preparation of active compound, 1 part by weight of active compound is mixed with the stated amount of solvent, the stated amount of emulsifier is added and the concentrate is diluted with water to the desired concentration. Seeds of the test plants are sown in normal soil. After about 24 hours, the soil is sprayed with the preparation of active compound such that the particular amount of active compound desired is applied per unit area. The concentration of the spray liquor is chosen so that the particular amount of active compound desired is applied in 500 litres of water per hectare. After three weeks, the degree of damage to the plants is tested in % damage in comparison to the development of the untreated control.

[2] = test system: weeds, such as, for example, Agropyron, Alopecurus, Avena, Bromus and Lolium; experiment: Post-emergence test/greenhouse, summary for weeds; conditions: greenhouse
Procedure: Post-emergence Test/greenhouse Solvent: 5 parts by weight of acetone Emulsifier: 1 part by weight of alkylaryl polyglycol ether To produce a suitable preparation of active compound, 1 part by weight of active compound is mixed with the stated amount of solvent, the stated amount of emulsifier is added and the concentrate is diluted with water to the desired concentration. Test plants which have a height of 5-15 cm are sprayed with the preparation of active compound such that the particular amounts of active compound desired are applied per unit area. The concentration of the spray liquor is chosen so that the particular amounts of active compound desired are applied in 500 l of water/ha. After three weeks, the degree of damage to the plants is assessed in % damage in comparison to the development of the untreated control. […] [“ai.”=“active ingredient”].

Bromus [3] = experiment: Post-emergence test/greenhouse; conditions: greenhouse, after three weeks
Procedure: (§2) Post-emergence Test/greenhouse Solvent: 5 parts by weight of acetone Emulsifier: 1 part by weight of alkylaryl polyglycol ether To produce a suitable preparation of active compound, 1 part by weight of active compound is mixed with the stated amount of solvent, the stated amount of emulsifier is added and the concentrate is diluted with water to the desired concentration. Test plants which have a height of 5-15 cm are sprayed with the preparation of active compound such that the particular amounts of active compound desired are applied per unit area. The concentration of the spray liquor is chosen so that the particular amounts of active compound desired are applied in 500 l of water/ha. After three weeks, the degree of damage to the plants is assessed in % damage in comparison to the development of the untreated control. The figures denote: 0%=no effect (like untreated control) 100% total destruction

Agropyron [4] = experiment: Post-emergence test/greenhouse; conditions: greenhouse, after three weeks
Procedure: as §2

Avena [5] = experiment: Post-emergence test/greenhouse; conditions: greenhouse, after three weeks
Procedure: as §2

Lolium [6] = experiment: Post-emergence test/greenhouse; conditions: greenhouse, after three weeks
Procedure: as §2

Alopecurus [7] = experiment: Post-emergence test/greenhouse; conditions: greenhouse, after three weeks
Procedure: as §2

Wheat [8] = experiment: Post-emergence test/greenhouse; conditions: greenhouse; for degree of damage to the plants (% damage in comparison to the untreated control): Wheat, after three weeks; for compatibility with crop plants (wheat), in words: sodium salt of (I) at 60 g/ha
Procedure: as §2

Bromus [9] = experiment: Pre-emergence test/greenhouse; conditions: greenhouse, after three weeks
Procedure: as §1, with “control. The figures denote: 0% no effect (like untreated control) 100%=total destruction” for “control.”

Avena [10] = experiment: Pre-emergence test/greenhouse; conditions: greenhouse, after three weeks
Procedure: as §1, with “control. The figures denote: 0% no effect (like untreated control) 100%=total destruction” for “control.”

Lolium [11] = experiment: Pre-emergence test/greenhouse; conditions: 500 g ai./ha, greenhouse, after three weeks
Procedure: as §1, with “control. The figures denote: 0% no effect (like untreated control) 100%=total destruction” for “control.”

Setaria = experiment: Pre-emergence test/greenhouse; conditions: 500 g ai./ha, greenhouse, after three weeks
Procedure: as §1, with “control. The figures denote: 0% no effect (like untreated control) 100%=total destruction” for “control.”

Alopecurus [12] = experiment: Pre-emergence test/greenhouse; conditions: greenhouse, after three weeks
Procedure: as §1, with “control. The figures denote: 0% no effect (like untreated control) 100%=total destruction” for “control.”

Wheat [13] = experiment: Pre-emergence test/greenhouse; conditions: greenhouse; for degree of damage to the plants (% damage in comparison to the untreated control): Wheat, after three weeks
Procedure: as §1, with “control. The figures denote: 0% no effect (like untreated control) 100%=total destruction” for “control.”

Agropyron [14] = experiment: Pre-emergence test/greenhouse; conditions: 15 g ai./ha, greenhouse, after three weeks
Procedure: as §1, with “control. The figures denote: 0% no effect (like untreated control) 100%=total destruction” for “control.”

Sinapis = experiment: Pre-emergence test/greenhouse; conditions: 15 g ai./ha, greenhouse, after three weeks
Procedure: as §1, with “control. The figures denote: 0% no effect (like untreated control) 100%=total destruction” for “control.”

Amaranthus = experiment: Pre-emergence test/greenhouse; conditions: 15 g ai./ha, greenhouse, after three weeks
Procedure: as §1, with “control. The figures denote: 0% no effect (like untreated control) 100%=total destruction” for “control.”

Poa = experiment: Pre-emergence test/greenhouse; conditions: 15 g ai./ha, greenhouse, after three weeks
Procedure: as §1, with “control. The figures denote: 0% no effect (like untreated control) 100%=total destruction” for “control.”

COC(=O)c1ccccc1S(=O)(=O)NC(=O)n1nc(OC(C)C)n(C)c1=O.[Na] [(C), 2-(2-Methoxycarbonyl-phenylsulphonylaminocarbonyl)-4-methyl-5-isopropoxy-2,4-dihydro-3H-1,2,4-triazol-3-one-sodium salt]
herbicidal activity (in words, compared with the sodium salt of (I)) [1]: considerably weaker herbicidal activity
herbicidal activity (in words, compared with the sodium salt of (I)) [2]: considerably weaker herbicidal activity
degree of damage to the plants (% damage in comparison to the untreated control) (Bromus [3]; 60 g ai./ha): 70%
degree of damage to the plants (% damage in comparison to the untreated control) (Agropyron [4]; 60 g ai./ha): 60%
degree of damage to the plants (% damage in comparison to the untreated control) (Avena [5]; 60 g ai./ha): 50%
degree of damage to the plants (% damage in comparison to the untreated control) (Lolium [6]; 60 g ai./ha): 70%
degree of damage to the plants (% damage in comparison to the untreated control) (Alopecurus [7]; 60 g ai./ha): 70%
degree of damage to the plants (% damage in comparison to the untreated control) (Wheat [8]; 60 g ai./ha): 0%

CCCCOc1nn(C(=O)NS(=O)(=O)c2ccccc2C(=O)OC)c(=O)n1C [(A), 2-(2-Methoxycarbonyl-phenylsulphonylaminocarbonyl)-4-methyl-5-butoxy-2,4-dihydro-3H-1,2,4-triazol-3-one]
herbicidal activity (in words, compared with the sodium salt of (I)) [1]: considerably weaker herbicidal activity
degree of damage to the plants (% damage in comparison to the untreated control) (Bromus [9]; 500 g ai./ha): 30%
degree of damage to the plants (% damage in comparison to the untreated control) (Avena [10]; 500 g ai./ha): 0%
degree of damage to the plants (% damage in comparison to the untreated control) (Lolium [11]): 0%
degree of damage to the plants (% damage in comparison to the untreated control) (Setaria): 0%
degree of damage to the plants (% damage in comparison to the untreated control) (Alopecurus [12]; 500 g ai./ha): 20%
degree of damage to the plants (% damage in comparison to the untreated control) (Wheat [13]; 500 g ai./ha): 0%
herbicidal activity (in words, compared with the sodium salt of (I)) [2]: considerably weaker herbicidal activity
degree of damage to the plants (% damage in comparison to the untreated control) (Bromus [3]; 60 g ai./ha): 0%
degree of damage to the plants (% damage in comparison to the untreated control) (Agropyron [4]; 60 g ai./ha): 0%
degree of damage to the plants (% damage in comparison to the untreated control) (Avena [5]; 60 g ai./ha): 50%
degree of damage to the plants (% damage in comparison to the untreated control) (Lolium [6]; 60 g ai./ha): 0%
degree of damage to the plants (% damage in comparison to the untreated control) (Alopecurus [7]; 60 g ai./ha): 0%
degree of damage to the plants (% damage in comparison to the untreated control) (Wheat [8]; 60 g ai./ha): 0%

CCCOc1nn(C(=O)NS(=O)(=O)c2ccccc2C(=O)OCC)c(=O)n1C [(D), 2-(2-Ethoxycarbonyl-phenylsulphonylaminocarbonyl)-4-methyl-5-propoxy-2,4-dihydro-3H-1,2,4-triazol-3-one]
herbicidal activity (in words, compared with the sodium salt of (I)) [1]: considerably weaker herbicidal activity
herbicidal activity (in words, compared with the sodium salt of (I)) [2]: considerably weaker herbicidal activity
degree of damage to the plants (% damage in comparison to the untreated control) (Bromus [3]; 60 g ai./ha): 80%
degree of damage to the plants (% damage in comparison to the untreated control) (Agropyron [4]; 60 g ai./ha): 70%
degree of damage to the plants (% damage in comparison to the untreated control) (Avena [5]; 60 g ai./ha): 20%
degree of damage to the plants (% damage in comparison to the untreated control) (Lolium [6]; 60 g ai./ha): 30%
degree of damage to the plants (% damage in comparison to the untreated control) (Wheat [8]; 60 g ai./ha): 0%

CCCOc1nn(C(=O)NS(=O)(=O)c2ccccc2C(=O)OC)c(=O)n1CC [(F), 2-(2-Methoxycarbonyl-phenylsulphonylaminocarbonyl)-4-ethyl-5-propoxy-2,4-dihydro-3H-1,2,4-triazol-3-one]
herbicidal activity (in words, compared with the sodium salt of (I)) [1]: considerably weaker herbicidal activity
degree of damage to the plants (% damage in comparison to the untreated control) (Bromus [9]; 15 g ai./ha): 20%
degree of damage to the plants (% damage in comparison to the untreated control) (Agropyron [14]): 0%
degree of damage to the plants (% damage in comparison to the untreated control) (Avena [10]; 15 g ai./ha): 0%
degree of damage to the plants (% damage in comparison to the untreated control) (Sinapis): 70%
degree of damage to the plants (% damage in comparison to the untreated control) (Amaranthus): 70%
degree of damage to the plants (% damage in comparison to the untreated control) (Poa): 0%
degree of damage to the plants (% damage in comparison to the untreated control) (Alopecurus [12]; 15 g ai./ha): 40%
degree of damage to the plants (% damage in comparison to the untreated control) (Wheat [13]; 15 g ai./ha): 0%
herbicidal activity (in words, compared with the sodium salt of (I)) [2]: considerably weaker herbicidal activity
degree of damage to the plants (% damage in comparison to the untreated control) (Bromus [3]; 60 g ai./ha): 50%
degree of damage to the plants (% damage in comparison to the untreated control) (Agropyron [4]; 60 g ai./ha): 50%
degree of damage to the plants (% damage in comparison to the untreated control) (Avena [5]; 60 g ai./ha): 40%
degree of damage to the plants (% damage in comparison to the untreated control) (Lolium [6]; 60 g ai./ha): 30%
degree of damage to the plants (% damage in comparison to the untreated control) (Alopecurus [7]; 60 g ai./ha): 50%
degree of damage to the plants (% damage in comparison to the untreated control) (Wheat [8]; 60 g ai./ha): 20%
compatibility with crop plants (wheat), in words (Wheat [8]): not entirely compatible with wheat

CCCOn1c(C)nn(C(=O)NS(=O)(=O)c2ccccc2C(=O)OC)c1=O [(E), 2-(2-Methoxyxcarbonyl-phenylsulphonylaminocarbonyl)-4-propoxy-5-methyl-2,4-dihydro-3H-1,2,4-triazol-3-one]
herbicidal activity (in words, compared with the sodium salt of (I)) [1]: considerably weaker herbicidal activity
herbicidal activity (in words, compared with the sodium salt of (I)) [2]: considerably weaker herbicidal activity
degree of damage to the plants (% damage in comparison to the untreated control) (Bromus [3]; 250 g ai./ha): 50%
degree of damage to the plants (% damage in comparison to the untreated control) (Avena [5]; 250 g ai./ha): 0%
degree of damage to the plants (% damage in comparison to the untreated control) (Lolium [6]; 250 g ai./ha): 50%
degree of damage to the plants (% damage in comparison to the untreated control) (Alopecurus [7]; 250 g ai./ha): 70%
degree of damage to the plants (% damage in comparison to the untreated control) (Wheat [8]; 250 g ai./ha): 0%

CCOc1nn(C(=O)NS(=O)(=O)c2ccccc2C(=O)OC)c(=O)n1C [(B), 2-(2-Methoxycarbonyl-phenylsulphonylaminocarbonyl)-4-methyl-5-ethoxy-2,4-dihydro-3H-1,2,4-triazol-3-one-sodium salt]
degree of damage to the plants (% damage in comparison to the untreated control) (Agropyron [14]): 40%
degree of damage to the plants (% damage in comparison to the untreated control) (Avena [10]; 15 g ai./ha): 60%
degree of damage to the plants (% damage in comparison to the untreated control) (Sinapis): 70%
degree of damage to the plants (% damage in comparison to the untreated control) (Amaranthus): 70%
degree of damage to the plants (% damage in comparison to the untreated control) (Poa): 70%
degree of damage to the plants (% damage in comparison to the untreated control) (Wheat [13]; 15 g ai./ha): 40%
compatibility with crop plants (wheat), in words (Wheat [13]; sodium salt of (I) at 15 g/ha to 60 g/ha): not entirely compatible with wheat
degree of damage to the plants (% damage in comparison to the untreated control) (Bromus [3]; 30 g ai./ha): 80%
degree of damage to the plants (% damage in comparison to the untreated control) (Agropyron [4]; 30 g ai./ha): 90%
degree of damage to the plants (% damage in comparison to the untreated control) (Avena [5]; 30 g ai./ha): 90%
degree of damage to the plants (% damage in comparison to the untreated control) (Lolium [6]; 30 g ai./ha): 90%
degree of damage to the plants (% damage in comparison to the untreated control) (Alopecurus [7]; 30 g ai./ha): 90%
degree of damage to the plants (% damage in comparison to the untreated control) (Wheat [8]; 30 g ai./ha): 60%
compatibility with crop plants (wheat), in words (Wheat [8]): not entirely compatible with wheat
